Tests used:
Type in all cases: cell-based, Human
NRF2 gene [1] = test: NRF2 gene editing (indel/frameshift) analysis by NGS and CRISPResso2 in FaDu cells; conditions: for knocking out NRF2 (DNA sequence data): exon 4
Procedure: (§1) The NRF2 gene-coding sequence was entered into SnapGene and the following gRNAs were selected for targeting exon 2: (sg3) 5′-[…]-3′ (SEQ ID NO:75); as well as two gRNAs targeting Exon 4: (sg76) 5′-[…]-3′ (SEQ ID NO:16), (sg83) 5′-[…]-3′ (SEQ ID NO:24). Based on the gRNA design, synthetic single gRNAs were ordered from Synthego (Menlo Park, California, USA). CleanCap® Cas9 mRNA (5moU) was ordered from TriLink Biotechnologies (San Diego, CA, USA).
Either one million cells were seeded to a 75 cm^2 tissue culture flask or 2.5 million cells were seeded to a 175 cm^2 tissue culture flask 24 hours prior to transfection and allowed to reach 60-80% confluency. On the day of the transfection, cells were treated with Lipofectamine MessengerMAX reagent (Thermo Fisher Scientific, Waltham, MA) bearing 10 μg or 25 μg of Cas9mRNA and 10 μg or 25 μg of sgRNA, suspended in Opti-MEM, per the manufacturer's instructions. 39 μL or 97.5 μL of MessengerMax lipofectamine reagent was diluted in 1.5 mL or 3.75 mL OPTI-MEM medium and vortexed twice was incubated for ten minutes at room temperature, during which time the culture media was replaced with 15 mL or 25 mL of fresh media, as appropriate to the cell line. A total of 20 μg or 50 μg of RNA was then added to the diluted lipofectamine, consisting of 10 μg or 25 μg Cas9 mRNA and 10 μg or 25 μg sgRNA. The suspension was incubated at room temperature for an additional five minutes before being added, in full, to the tissue culture flask, which was then swirled gently to disperse the reagent. […]
(§2) Targeted amplicon libraries were prepared using Illumina's 16S metagenomic sequencing library preparation protocol for MiSeq. Genomic DNA was extracted from cells using the Qiagen's DNeasy Blood & Tissue kit (Quiagen, Hilden, Germany) or QuickExtract reagent (Biosearch Technologies). The region surrounding the CRISPR target site for Exon 2 (398 bp) and Exon 4 (402 bp) of the NRF2 gene were amplified using the 2× Phusion Flash PCR master mix (Thermo Fisher Scientific, Waltham, MA). Post amplification, samples were cleaned using AMPure beads and DNA concentration was measured using the Qubit assay (Thermo Fisher Scientific, Waltham, MA). Samples are also run on TapeStation (Agilent Technologies Santa Clara, CA) to verify the presence of the desired amplicon. The samples were indexed using either the IDT for Illumina DNA/RNA UD indexes set A (Illumina San Diego, CA). Samples were again quantified using Qubit and average library size was calculated using the Tapestation amplicon size. Once pooled to the loading concentration, the libraries were sequenced using the MiSeq Reagent kit v2 (Illumina, San Diego, CA). Only the data that passed data QC in Sequencing Analysis Viewer, was analyzed using CRISPResso2 (CRISPResso2 website) to understand gene editing efficiency and frameshift analysis.

NRF2 gene [2] = test: NRF2 gene editing (indel/frameshift) analysis by NGS and CRISPResso2 in KYSE-410 cells; conditions: for gene editing activity (indel profiles): seventy-two hours post-transfection; for knocking out NRF2 (DNA sequence data): exon 4
Procedure: as §1
Either one million cells were seeded to a 75 cm^2 tissue culture flask or 2.5 million cells were seeded to a 175 cm^2 tissue culture flask 24 hours prior to transfection and allowed to reach 60-80% confluency. On the day of the transfection, cells were treated with Lipofectamine MessengerMAX reagent (Thermo Fisher Scientific, Waltham, MA) bearing 10 μg or 25 μg of Cas9mRNA and 10 μg or 25 μg of sgRNA, suspended in Opti-MEM, per the manufacturer's instructions. 39 μL or 97.5 μL of MessengerMax lipofectamine reagent was diluted in 1.5 mL or 3.75 mL OPTI-MEM medium and vortexed twice was incubated for ten minutes at room temperature, during which time the culture media was replaced with 15 mL or 25 mL of fresh media, as appropriate to the cell line. A total of 20 μg or 50 μg of RNA was then added to the diluted lipofectamine, consisting of 10 μg or 25 μg Cas9 mRNA and 10 μg or 25 μg sgRNA. The suspension was incubated at room temperature for an additional five minutes before being added, in full, to the tissue culture flask, which was then swirled gently to disperse the reagent. Treated cells were incubated for 72 hours at 37° C. prior to being assayed.
as §2

[3] = system: NRF2 downstream target genes (NQO1, HMOX1, GCLC); test: qPCR gene expression analysis of NRF2 and downstream targets in FaDu cells; conditions: for NQO1 expression (qPCR): vs wildtype unedited cells, without cisplatin exposure
Procedure: Total RNA was isolated from edited cells using TRIzol reagent and PureLink RNA Mini Kit (Thermo Fisher Scientific, Waltham, MA). Reverse transcription was conducted using the Applied Biosystems High-Capacity RNA-to-cDNA kit (Thermo Fisher Scientific, Waltham, MA). The cDNA was used as the template in the qPCR amplification of GAPDH (Fwd 5′ […]3′ (SEQ ID NO:76), Rev 5′[…]3′ (SEQ ID NO:77)), NRF2 (Fwd 5′[…]3′ (SEQ ID NO:78), Rev 5′[…]3′ (SEQ ID NO:79)), NQO1 (Fwd 5′[…]3′ (SEQ ID NO:80), Rev 5′[…]3′ (SEQ ID NO:81)), HMOX1 (Fwd 5′ […]3′ (SEQ ID NO:82), Rev 5′[…]3′ (SEQ ID NO:83)) and GCLC (Fwd 5′[…]3′ (SEQ ID NO:84), Rev 5′ […]3′ (SEQ ID NO:85)) transcripts using the SsoAdvanced universal SYBR Green Supermix (BioRad, Hercules, CA). The experiment was conducted at least twice with all samples run in duplicate at minimum. Relative expression levels of mRNA were calculated using the Livak method and normalized to the control. The data was plotted with the coefficient of variance.
For all gene editing studies from bench to bedside, it is important to employ a functional assay, accompanied by an internal functional control, to assess the efficiency of CRISPR/Cas activity. In this case, NRF2 is a transcription factor that controls the expression of over 200 genes. Thus, NRF2 disruption can be measured functionally through qPCR analysis of NQO1 expression, a keystone gene controlled by NRF2. NQO1 has been used as a standard measure of NRF2 activity in cancer cells^40. We also use downstream targets HMOX1 and GCLC, two major antioxidant enzymes, to assess NRF2 function.

[4] = 13 days (two weeks) after transfection

sg3: gRNA targeting the DLG motif in exon 2 of NRF2; 5′-TATTTGACTTCAGTCAGCGA-3′ or TGGAGGCAAGATATAGATCT (further chemistry not given here) [reference compound]
editing (NRF2 gene [1]; 72 hr): 85.5%
editing (NRF2 gene [1]; [4]): 73.45%
frameshift mutations (of the total indels) (NRF2 gene [1]; exon 2, 72 hours): exceeded 76%
total indel population (NRF2 gene [1]; exon 2, 72 hours): exceeded 76%
gene editing activity (indel profiles) (NRF2 gene [2]): 97%
expression of NQO1, HMOX1, and GCLC ([3]; 2 week timepoint): increase in expression
expression of downstream target genes relative to NRF2 levels (ratio) ([3]; 72 hr): do not show a reduction in expression of downstream target genes relative to NRF2 levels

sg76: gRNA targeting exon 4 of NRF2; TCACTTGTTCCTGATATTCC CGG (guide TCACTTGTTCCTGATATTCCCGG; listed as DNA, chemistry not given here)
editing (NRF2 gene [1]; 72 hr): 87%
editing (NRF2 gene [1]; [4]): 49.30%
knocking out NRF2 (DNA sequence data) (NRF2 gene [1]): efficient in knocking out NRF2 at exon 4
knocking out NRF2 (DNA sequence data) (NRF2 gene [2]): efficient in knocking out NRF2 at exon 4
gene editing activity (indel profiles) (NRF2 gene [2]): 97%
expression of downstream target genes relative to NRF2 levels (ratio) ([3]; 72 hr): do not show a reduction in expression of downstream target genes relative to NRF2 levels
NQO1 expression (qPCR) [3]: significantly decreased

sg83: gRNA targeting exon 4 of NRF2; GTAGCCCCTGTTGATTTAGA CGG (guide GTAGCCCCTGTTGATTTAGACGG; listed as DNA, chemistry not given here)
editing (NRF2 gene [1]; 72 hr): 86%
editing (NRF2 gene [1]; [4]): 40.95%
knocking out NRF2 (DNA sequence data) (NRF2 gene [1]): efficient in knocking out NRF2 at exon 4
knocking out NRF2 (DNA sequence data) (NRF2 gene [2]): efficient in knocking out NRF2 at exon 4
gene editing activity (indel profiles) (NRF2 gene [2]): 97%
expression of NQO1 and GCLC ([3]; 2 week timepoint, compared to sg3 and sg76): lower expression of NQO1 and GCLC
NQO1 and GCLC expression levels ([3]; 72 hr): diminished
NQO1 expression (qPCR) [3]: significantly decreased
